{"source": "patent US8501936B2", "about": "(priority 2009, dated 2013)", "data": [{"biological_target": "human FAK (Homo sapiens (Human), UniProt Q05397)", "sequence (Q05397 whole entry)": "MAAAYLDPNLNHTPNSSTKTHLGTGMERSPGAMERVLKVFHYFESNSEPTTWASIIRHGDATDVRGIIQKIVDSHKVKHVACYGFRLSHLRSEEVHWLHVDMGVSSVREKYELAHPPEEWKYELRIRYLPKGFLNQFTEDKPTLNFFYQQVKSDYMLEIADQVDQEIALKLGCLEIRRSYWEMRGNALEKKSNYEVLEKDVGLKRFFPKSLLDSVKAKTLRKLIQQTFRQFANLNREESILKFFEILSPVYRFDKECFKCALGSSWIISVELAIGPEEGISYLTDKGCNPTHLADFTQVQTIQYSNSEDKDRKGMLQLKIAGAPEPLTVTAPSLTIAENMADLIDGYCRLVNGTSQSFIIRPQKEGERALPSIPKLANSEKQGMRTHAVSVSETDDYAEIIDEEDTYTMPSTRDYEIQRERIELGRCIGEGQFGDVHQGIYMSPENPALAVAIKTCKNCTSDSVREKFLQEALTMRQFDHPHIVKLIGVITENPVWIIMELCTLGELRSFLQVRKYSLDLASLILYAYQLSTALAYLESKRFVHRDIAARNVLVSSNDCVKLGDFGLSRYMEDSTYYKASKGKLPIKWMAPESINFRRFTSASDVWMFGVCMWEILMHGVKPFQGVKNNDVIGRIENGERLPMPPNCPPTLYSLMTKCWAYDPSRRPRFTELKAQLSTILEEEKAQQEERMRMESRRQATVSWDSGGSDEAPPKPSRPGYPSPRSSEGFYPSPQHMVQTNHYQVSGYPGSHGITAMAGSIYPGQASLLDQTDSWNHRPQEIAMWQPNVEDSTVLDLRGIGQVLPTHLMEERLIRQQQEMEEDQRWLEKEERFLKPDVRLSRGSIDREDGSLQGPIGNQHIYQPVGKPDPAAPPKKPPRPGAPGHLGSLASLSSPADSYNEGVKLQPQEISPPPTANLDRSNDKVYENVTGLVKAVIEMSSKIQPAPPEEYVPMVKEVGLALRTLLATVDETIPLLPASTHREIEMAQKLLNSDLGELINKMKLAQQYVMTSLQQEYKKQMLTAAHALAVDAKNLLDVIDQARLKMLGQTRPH", "conditions": "read-out: FAK IC50", "units": {"IC50": "nM"}, "values": [{"smiles": "COc1ccc(Nc2nc3c(-c4ccc(S(C)(=O)=O)cc4)cccn3n2)cc1", "note": "[Example 19, [8-(4-Methanesulfonyl-phenyl)-[1,2,4]triazolo[1,5-a]pyridin-2-yl]-(4-methoxy-phenyl)-amine]", "IC50": 1580}, {"smiles": "CS(=O)(=O)c1ccc(-c2cccn3nc(Nc4ccc(N5CCC(N6CCOCC6)CC5)cc4)nc23)cc1", "note": "[Example 49, [8-(4-Methanesulfonyl-phenyl)-[1,2,4]triazolo[1,5-a]pyridin-2-yl]-[4-(4-morpholin-4-yl-piperidin-1-yl)-phenyl]-amine]", "IC50": 251}, {"smiles": "CN1CCN(c2ccc(Nc3nc4c(-c5ccc(S(=O)(=O)N(C)C)cc5)cccn4n3)cc2)CC1", "note": "[Example 54, N,N-Dimethyl-4-{2-[4-(4-methyl-piperazin-1-yl)-phenylamino]-[1,2,4]triazolo[1,5-a]pyridin-8-yl}-benzenesulfonamide]", "IC50": 787}, {"smiles": "CS(=O)(=O)c1ccccc1Nc1nc2c(Nc3ccccc3S(C)(=O)=O)cccn2n1", "note": "[Example 69, N(2),N(8)-Bis-(2-methanesulfonyl-phenyl)-[1,2,4]triazolo[1,5-a]pyridine-2,8-diamine]", "IC50": 6500}, {"smiles": "CS(=O)(=O)c1cccc(-c2cccc3nc(Nc4ccc(CN5CCOCC5)cc4)nn23)c1", "note": "[Example 87, [5-(3-Methanesulfonyl-phenyl)-[1,2,4]triazolo[1,5-a]pyridin-2-yl]-(4-morpholin-4-ylmethyl-phenyl)-amine]", "IC50": 341}, {"smiles": "CN1CCN(c2cncc(Nc3nc4cncc(-c5ccc(S(C)(=O)=O)cc5)n4n3)c2)CC1", "note": "[Example 108, [5-(4-Methanesulfonyl-phenyl)-[1,2,4]triazolo[1,5-a]pyrazin-2-yl]-[5-(4-methyl-piperazin-1-yl)-pyridin-3-yl]-amine]", "IC50": 3370}, {"smiles": "CN1CCN(c2ccc(Nc3nc4c(Nc5cccc(S(C)(=O)=O)c5)cccn4n3)cc2)CC1", "note": "[Example 109, N(8)-(3-Methanesulfonyl-phenyl)-N(2)-[4-(4-methyl-piperazin-1-yl)-phenyl]-[1,2,4]triazolo[1,5-a]pyridine-2,8-diamine]", "IC50": 10000}, {"smiles": "CN1CCN(c2ccc(Nc3nc4c(-c5cccc(N(C)S(C)(=O)=O)c5)cccn4n3)cc2)CC1", "note": "[Example 127, N-Methyl-N-(3-{2-[4-(4-methyl-piperazin-1-yl)-phenylamino]-[1,2,4]triazolo[1,5-a]pyridin-8-yl}-phenyl)-methanesulfonamide]", "IC50": 3130}, {"smiles": "CN1C(=O)Cc2cc(Nc3nc4c(NCc5cccnc5N(C)S(C)(=O)=O)cccn4n3)ccc21", "note": "[Example 146, N-Methyl-N-(3-{[2-(1-methyl-2-oxo-2,3-dihydro-1H-indol-5-ylamino)-[1,2,4]triazolo[1,5-a]pyridin-8-ylamino]-methyl}-pyridin-2-yl)-methanesulfonamide]", "IC50": 106}, {"smiles": "CN1CCN(c2cccc(Nc3nc4c(NCc5ccccc5N(C)S(C)(=O)=O)cccn4n3)c2)CC1", "note": "[Example 148, N-Methyl-N-[2-({2-[3-(4-methyl-piperazin-1-yl)-phenylamino]-[1,2,4]triazolo[1,5-a]pyridin-8-ylamino}-methyl)-phenyl]-methanesulfonamide]", "IC50": 14.6}, {"smiles": "CN1CCC(c2ccc(Nc3nc4c(NCc5ccccc5CN(C)S(C)(=O)=O)cccn4n3)cc2)CC1", "note": "[Example 159, N-Methyl-N-[2-({2-[4-(1-methyl-piperidin-4-yl)-phenylamino]-[1,2,4]triazolo[1,5-a]pyridin-8-ylamino}-methyl)-benzyl]-methanesulfonamide]", "IC50": 538}, {"smiles": "CN1CCN(c2ccc(Nc3nc4c(NCC5CCCN5S(C)(=O)=O)cccn4n3)cc2)CC1", "note": "(stereo not drawn) [Example 170, N(8)-(1-Methanesulfonyl-pyrrolidin-2-ylmethyl)-N(2)-[4-(4-methyl-piperazin-1-yl)-phenyl]-[1,2,4]triazolo[1,5-a]pyridine-2,8-diamine]", "IC50": 872}, {"smiles": "CS(=O)(=O)c1ccc(-c2cccn3nc(Nc4cccc(C5CCNCC5)c4)nc23)cc1", "note": "[Example 182, [8-(4-Methanesulfonyl-phenyl)-[1,2,4]triazolo[1,5-a]pyridin-2-yl]-(3-piperidin-4-yl-phenyl)-amine]", "IC50": 1000}, {"smiles": "CS(=O)(=O)CCN1CCC(c2cccc(Nc3nc4c(-c5ccc(S(C)(=O)=O)cc5)cccn4n3)c2)CC1", "note": "[Example 190, {3-[1-(2-Methanesulfonyl-ethyl)-piperidin-4-yl]-phenyl}-[8-(4-methanesulfonyl-phenyl)-[1,2,4]triazolo[1,5-a]pyridin-2-yl]-amine]", "IC50": 580}, {"smiles": "CCN1CCN(c2cccc(Nc3nc4c(-c5ccc(S(C)(=O)=O)cc5)cccn4n3)c2)C(=O)C1", "note": "[Example 205, 4-Ethyl-1-{3-[8-(4-methanesulfonyl-phenyl)-[1,2,4]triazolo[1,5-a]pyridin-2-ylamino]-phenyl}-piperazin-2-one]", "IC50": 10000}, {"smiles": "CCn1cc(Nc2nc3c(-c4ccc(C(F)(F)F)cc4)cccn3n2)cn1", "note": "[Example 215, (1-Ethyl-1H-pyrazol-4-yl)-[8-(4-trifluoromethyl-phenyl)-[1,2,4]triazolo[1,5-a]pyridin-2-yl]-amine]", "IC50": 10000}, {"smiles": "COc1cc(C(F)(F)F)ccc1-c1cccc2nc(Nc3ccc4c(c3)CCN(CCS(C)(=O)=O)CC4)nn12", "note": "[Example 238]", "IC50": 1950}, {"smiles": "FC1(F)Oc2cccc(-c3cccn4nc(Nc5ccc6c(c5)CCNCC6)nc34)c2O1", "note": "[Example 244, [8-(2,2-difluoro-1,3-benzodioxol-4-yl)-[1,2,4]triazolo[1,5-a]pyridin-2-yl]-(2,3,4,5-tetrahydro-1H-3-benzazepin-7-yl)amine]", "IC50": 6500}, {"smiles": "CN1CCN(c2ccc(Nc3nc4c(OCc5cccc(Cl)c5)cccn4n3)cc2)CC1", "note": "[Example 260, [8-(3-Chloro-benzyloxy)-[1,2,4]triazolo[1,5-a]pyridin-2-yl]-[4-(4-methyl-piperazin-1-yl)-phenyl]-amine]", "IC50": 1100}, {"smiles": "CN1CCN(c2cccc(Nc3nc4c(OCc5ccccc5C#N)cccn4n3)c2)CC1", "note": "[Example 263, 2-{2-[3-(4-Methyl-piperazin-1-yl)-phenylamino]-[1,2,4]triazolo[1,5-a]pyridin-8-yloxymethyl}-benzonitrile]", "IC50": 3000}, {"smiles": "Fc1ccc(C(F)(F)F)cc1-c1cccn2nc(Nc3ccc4c(c3)CCNCC4)nc12", "note": "[Example 270, [8-(2-Fluoro-5-trifluoromethyl-phenyl)-[1,2,4]triazolo[1,5-a]pyridin-2-yl]-[2,3,4,5-tetrahydro-1H-benzo[d]azopin-7-yl]-amine]", "IC50": 6500}, {"smiles": "O=c1[nH]cccc1-c1cccn2nc(Nc3ccc4ncccc4c3)nc12", "note": "[Example 276, 3-[2-(Quinolin-6-ylamino)-[1,2,4]triazolo[1,5-a]pyridin-8-yl]-1H-pyridin-2-one]", "IC50": 10000}, {"smiles": "CN(C)C(=O)CN1CCC(c2ccc(Nc3nc4c(-c5cnn(-c6ccc(F)cc6)c5)cccn4n3)cc2)CC1", "note": "[Example 283, 2-[4-(4-{8-{1-(4-Fluoro-phenyl)1H-pyrazol-4-yl}-[1,2,4]triazolo[1,5-a]pyridine-2-ylamino}-phenyl)-piperidin-1-yl]-N,N-dimethyl-acetamide]", "IC50": 1370}, {"smiles": "CC(C)Oc1ccccc1-c1cccn2nc(Nc3ccc4c(c3)CCNCC4)nc12", "note": "[Example 299, [8-(2-Isopropoxy-phenyl]-[1,2,4]triazolo[1,5a]pyridine-2-yl]-(2,3,4,5-tetrahydro-benzo[d]azepin-7-yl)-amine]", "IC50": 999}]}]}
